Assays:
GALAP (Galium) = test: Preemergence herbicidal evaluation; type: in vivo, Galium aparine; conditions: rated 4-5 weeks after treatment; for GALAP rating: preemergence, 0-9 scale
Outline: (§1)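 Greenhouse preemergence test: seed-soil mix sown on ~1 inch soil; aqueous acetone spray at equivalent of ~0.0156–0.500 kg/ha; greenhouse-held and watered; scored 0–9 visually at 4–5 weeks.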

[1] = test system: CHEAL (Lambsquarters, Common); test: Postemergence herbicidal evaluation; type: in vivo, Chenopodium album; conditions: for CHEAL herbicidal rating: postemergence
Outline: (§2)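 Seedlings grown about two weeks were sprayed at 40 psi with compound dispersed in 50/50 acetone/water plus 0.5% TWEEN 20, at about 0.0156 to 0.500 kg/ha. Plants were kept in the greenhouse and scored 4–5 weeks later on a 0–9 visual scale against untreated controls.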

[2] = test system: GLXMAW (Soybean, Williams); test: Preemergence herbicidal evaluation; type: in vivo, Glycine max, (L.) Merr. cv Williams; conditions: rated 4-5 weeks after treatment; for GLXMAW rating: preemergence, 0-9 scale
Outline: as §1

ECHCG (Barnyardgrass) = test: Preemergence herbicidal evaluation; type: in vivo, Echinochloa crus-galli; conditions: rated 4-5 weeks after treatment; for ECHCG rating: preemergence, 0-9 scale
Outline: as §1

ORYSAT (Rice, Tebonnet) [3] = test: Rice tolerance to post-transplant applications, flooded paddy conditions (Table IV); type: in vivo, Oryza sativa, (L.) Tebonnet; conditions: in vivo
Source text: Results of herbicide evaluation are expressed on a rating scale (0-9). The scale is based upon a visual observation of plant stand, vigor, malformation, size, chlorosis and overall plant appearance as compared with a control.
Plastic containers containing weeds which are 3 to 5 cm tall and rice seedlings at the 1.5 to 2.5 leaf stage are flooded with water. The water is maintained at 1.5 to 3 cm above the soil surface for the duration of the experiment. Test compounds are applied as aqueous/ acetone mixtures 50/50 v/v directly into the flood water to provide the equivalent of about 0.0313 to 0.500 kg/ha of active ingredient. The treated containers are placed on greenhouse benches and cared for in accordance with conventional greenhouse procedures. Three to four weeks after treatment, the test is terminated and each container is examined and herbicidal effect rated according to the rating system provided in Example 37. The compounds evaluated are reported by compound number given in Example 37.

ORYSAT (Rice, Tebonnet) [4] = test: Rice tolerance to post-transplant applications, flooded paddy conditions (Table III); type: in vivo, Oryza sativa, (L.) Tebonnet; conditions: in vivo
Outline: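 Two ten-day-old Tebonnet seedlings transplanted into flooded silt loam (water 1.5 to 3 cm above soil); three days later the water surface was treated with compound in aqueous/acetone 50/50 at about 0.0313 to 0.500 kg/ha. Visual 0-9 injury rating versus control after three to four weeks in greenhouse.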

MOOVA (Monochoria) = test: Postemergence weed control under flooded paddy conditions; type: in vivo, Monochoria vaginalis; conditions: postemergence weeds, 3-4 weeks after treatment
Outline: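 Weeds 3 to 5 cm tall and rice seedlings at the 1.5 to 2.5 leaf stage were flooded, with water held 1.5 to 3 cm above the soil. Compounds in 50/50 v/v aqueous/acetone went into the flood water at about 0.0313 to 0.500 kg/ha. Visual 0-9 ratings versus control were made 3 to 4 weeks later.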

[5] = test system: IPOHE (Morningglory, Ivyleaf); test: Postemergence herbicidal evaluation; type: in vivo, Ipomoea hederacea; conditions: for IPOHE herbicidal rating: postemergence
Outline: as §2

| Compound | GALAP preemergence herbicidal rating (GALAP (Galium); rate 0.1250 kg/ha) | GALAP preemergence herbicidal rating (GALAP (Galium); rate 0.2500 kg/ha) | CHEAL herbicidal rating ([1]; rate 0.0158 kg/ha) | CHEAL herbicidal rating ([1]; rate 0.0315 kg/ha) | CHEAL herbicidal rating ([1]; rate 0.0630 kg/ha) | GLXMAW preemergence herbicidal rating ([2]; rate 0.1250 kg/ha) | GLXMAW preemergence herbicidal rating ([2]; rate 0.2500 kg/ha) | ECHCG preemergence herbicidal rating (ECHCG (Barnyardgrass); rate 0.1250 kg/ha) | ECHCG preemergence herbicidal rating (ECHCG (Barnyardgrass); rate 0.2500 kg/ha) | Herbicidal rating ORYSAT (rice tolerance) (ORYSAT (Rice, Tebonnet) [3]) | Herbicidal rating ORYSAT (rice tolerance) (ORYSAT (Rice, Tebonnet) [4]) | Herbicidal rating MOOVA (MOOVA (Monochoria); rate 0.1160 kg/ha) | Herbicidal rating MOOVA (MOOVA (Monochoria); rate 0.2310 kg/ha) | Herbicidal rating MOOVA (MOOVA (Monochoria); rate 0.4630 kg/ha) | IPOHE herbicidal rating ([5]; rate 0.0158 kg/ha) | IPOHE herbicidal rating ([5]; rate 0.0315 kg/ha) | IPOHE herbicidal rating ([5]; rate 0.0630 kg/ha) | further results |
| --- | --- | --- | --- | --- | --- | --- | --- | --- | --- | --- | --- | --- | --- | --- | --- | --- | --- | --- |
| CCOC(=O)CN1C(=O)C(=C2CCCC2)SC1=Nc1cc(-n2c(=O)cc(C(F)(F)F)n(C)c2=O)c(F)cc1Cl [Compound 18, Ethyl 2-{{2-chloro-5-[3,6-dihydro-3-methyl-2,6-dioxo-4-(trifluoromethyl)-1(2H)-pyrimidinyl]-4-fluorophenyl}imino}-5-cyclopentylidene-4-oxo-3-thiazolidineacetate] | 0.0 | 9.0 | 6.0 | 9.0 | 9.0 | 0.0 | 3.0 | 0.0 | 0.0 | 3.0 | 3.0 | 9.0 | 9.0 | 9.0 | 2.0 | 6.0 | 9.0 | – |
| CCOC(=O)CN1C(=O)C(=C(C)C)S/C1=N/c1cc(-n2c(=O)cc(C(F)(F)F)n(C)c2=O)c(F)cc1Cl [Compound 20, Ethyl 2-{{2-chloro-5-[3,6-dihydro-3-methyl-2,6-dioxo-4-(trifluoromethyl)-1(2H)-pyrimidinyl]-4-fluorophenyl}imino}-5-isopropylidene-4-oxo-3-thiazolidineacetate] | 0.0 | 0.0 | 4.0 | 6.0 | 7.0 | 0.0 | 4.0 | 0.0 | 0.0 | 2.0 | 2.0 | 9.0 | 9.0 | 9.0 | 9.0 | 3.0 | 9.0 | GALAP preemergence herbicidal rating (GALAP (Galium); rate 0.0625 kg/ha): 0.0; GLXMAW preemergence herbicidal rating ([2]; rate 0.0625 kg/ha): 0.0; ECHCG preemergence herbicidal rating (ECHCG (Barnyardgrass); rate 0.0625 kg/ha): 0.0 |
| CCOC(=O)CN1C(=O)C(=Cc2ccc(F)cc2)SC1=Nc1cc(-n2c(=O)cc(C(F)(F)F)n(C)c2=O)c(F)cc1Cl [Compound 21, Ethyl 2-{{2-chloro-5-[3,6-dihydro-3-methyl-2,6-dioxo-4-(trifluoromethyl)-1(2H)-pyrimidinyl]-4-fluorophenyl}imino}-5-(p-fluorobenzylidene)-4-oxo-3-thiazolidineacetate] | – | 0.0 | 2.0 | 5.0 | 7.0 | – | 0.0 | – | 0.0 | 0.0 | 0.0 | 0.0 | 0.0 | 0.0 | 1.0 | 2.0 | 9.0 | – |
| Cn1c(C(F)(F)F)cc(=O)n(-c2cc(N=C3SCC(=O)N3CCC(=O)O)c(Cl)cc2F)c1=O [Compound 30, 2-{{2-Chloro-5-[3,6-dihydro-3-methyl-2,6-dioxo-4-(trifluoromethyl)-1(2H)-pyrimidinyl]-4-fluorophenyl}imino}-4-oxo-3-thiazolidinepropionic acid] | – | – | – | – | – | – | – | – | – | 0.0 | 0.0 | – | – | – | – | – | – | Preemergence herbicidal rating GALAP (GALAP (Galium); rate 0.0313 kg/ha): 0.0; Preemergence herbicidal rating GALAP (GALAP (Galium); rate 0.0625 kg/ha): 0.0; Preemergence herbicidal rating GALAP (GALAP (Galium); rate 0.1250 kg/ha): 1.0; Preemergence herbicidal rating GALAP (GALAP (Galium); rate 0.2500 kg/ha): 9.0; Postemergence herbicidal rating CHEAL ([1]; Rate 0.0158 kg/ha): 0.0; Postemergence herbicidal rating CHEAL ([1]; Rate 0.0315 kg/ha): 0.0; Postemergence herbicidal rating CHEAL ([1]; Rate 0.0630 kg/ha): 3.0; Preemergence herbicidal rating GLXMAW ([2]; rate 0.0313 kg/ha): 2.0; Preemergence herbicidal rating GLXMAW ([2]; rate 0.0625 kg/ha): 3.0; Preemergence herbicidal rating GLXMAW ([2]; rate 0.1250 kg/ha): 1.0; Preemergence herbicidal rating GLXMAW ([2]; rate 0.2500 kg/ha): 4.0; Preemergence herbicidal rating ECHCG (ECHCG (Barnyardgrass); rate 0.0313 kg/ha): 0.0; Preemergence herbicidal rating ECHCG (ECHCG (Barnyardgrass); rate 0.0625 kg/ha): 0.0; Preemergence herbicidal rating ECHCG (ECHCG (Barnyardgrass); rate 0.1250 kg/ha): 0.0; Preemergence herbicidal rating ECHCG (ECHCG (Barnyardgrass); rate 0.2500 kg/ha): 0.0; Herbicidal rating MOOVA (MOOVA (Monochoria); rate 0.1250 kg/ha): 1.5; Herbicidal rating MOOVA (MOOVA (Monochoria); rate 0.2500 kg/ha): 4.5; Postemergence herbicidal rating IPOHE ([5]; Rate 0.0158 kg/ha): 0.0; Postemergence herbicidal rating IPOHE ([5]; Rate 0.0315 kg/ha): 0.0; Postemergence herbicidal rating IPOHE ([5]; Rate 0.0630 kg/ha): 9.0 |
| COC(=O)C1(N2C(=O)CSC2=Nc2cc(-n3c(=O)cc(C(F)(F)F)n(C)c3=O)c(F)cc2Cl)CCCCC1 [Compound 81, Methyl 1-{2-{{2-chloro-5-[3,6-dihydro-3-methyl-2,6-dioxo-4-(trifluoromethyl)-1(2H)-pyrimidinyl]-4-fluorophenyl}imino}-4-oxo-3-thiazolidinyl}-cyclohexanecarboxylate] | – | – | 4.0 | 3.0 | – | – | – | – | – | 0.0 | – | – | – | – | 9.0 | 9.0 | 9.0 | GALAP rating (GALAP (Galium); 0.0313 kg/ha): 0.0; GALAP rating (GALAP (Galium); 0.0625 kg/ha): 0.0; GALAP rating (GALAP (Galium); 0.1250 kg/ha): 0.0; GALAP rating (GALAP (Galium); 0.2500 kg/ha): 1.0; GLXMAW rating ([2]; 0.0313 kg/ha): 0.0; GLXMAW rating ([2]; 0.0625 kg/ha): 2.0; GLXMAW rating ([2]; 0.1250 kg/ha): 1.0; GLXMAW rating ([2]; 0.2500 kg/ha): 3.0; ECHCG rating (ECHCG (Barnyardgrass); 0.0313 kg/ha): 0.0; ECHCG rating (ECHCG (Barnyardgrass); 0.0625 kg/ha): 0.0; ECHCG rating (ECHCG (Barnyardgrass); 0.1250 kg/ha): 0.0; ECHCG rating (ECHCG (Barnyardgrass); 0.2500 kg/ha): 1.0; ORYSAT herbicidal effect rating (rice tolerance) (ORYSAT (Rice, Tebonnet) [4]): 0.0 |

Reference: patent US20020137929A1, “1 - (3-heterocyclylphenyl) isothiourea, -isourea, -guanidine and -amidine herbicidal agents” (Intellectual Property Department, BASF Aktiengesellschaft, priority 1998, published 2002)
